Test results: ChEMBL document CHEMBL1201862, “PubChem BioAssay data set” (2004)
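1) Cells in 96-well plates. 2) Compound, 48 h, 5 concentrations. 3) Linear interpolation between surrounding doses. 4) Unreached endpoint = highest concentration. GI50: concentration for 50% inhibition of growth.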 Activity calls are given as the source filed them. No stated cut-off is given here; in the data, active = GI50 up to about 1.1 µM and inactive = higher.

Legend:
Test in all cases: growth of human tumour cells (NCI), 48 h
NCI-H23 = system: NCI-H23
K562 = system: K562
SK-MEL-28 = system: SK-MEL-28
SW-620 = system: SW-620
IGROV-1 = system: IGROV-1
RXF 393 = system: RXF 393
HCT-15 = system: HCT-15
SK-OV-3 = system: SK-OV-3
HOP-62 = system: HOP-62
SK-MEL-2 = system: SK-MEL-2
HL-60 = system: HL-60
SF-295 = system: SF-295
HOP-92 = system: HOP-92
Malme-3M = system: Malme-3M
NCI/ADR-RES = system: NCI/ADR-RES
SR = system: SR
M14 = system: M14
ACHN = system: ACHN
CAKI-1 = system: CAKI-1

SMILES	GI50 (NCI-H23)	GI50 (K562)	GI50 (SK-MEL-28)	GI50 (SW-620)	GI50 (IGROV-1)	GI50 (RXF 393)	GI50 (HCT-15) [µM]	GI50 (SK-OV-3)	GI50 (HOP-62)	GI50 (SK-MEL-2)	GI50 (HL-60)	GI50 (SF-295)	GI50 (HOP-92)	GI50 (Malme-3M)	GI50 (NCI/ADR-RES)	GI50 (SR)	GI50 (M14)	GI50 (ACHN)	GI50 (CAKI-1)
c1ccc2c(c1)SP1Sc3ccccc3P21 (configuration not stated)	> 100 µM (inactive)	> 87.3 µM (inactive)	> 90.4 µM (inactive)	> 100 µM (inactive)	> 100 µM (inactive)	52.7 µM (inactive)	> 100	> 100 µM (inactive)	> 100 µM (inactive)	> 80.7 µM (inactive)	> 72.8 µM (inactive)	> 100 µM (inactive)	> 100 µM (inactive)	> 100 µM (inactive)	> 100 µM (inactive)	–	–	–	–
COC1CCC(O)C(CO)O1 (configuration not stated)	> 100 µM (inactive)	11.2 µM (inactive)	> 100 µM (inactive)	24.3 µM (inactive)	22.7 µM (inactive)	> 100 µM (inactive)	> 100	> 100 µM (inactive)	> 100 µM (inactive)	> 100 µM (inactive)	31.7 µM (inactive)	> 100 µM (inactive)	> 100 µM (inactive)	20.5 µM (inactive)	–	45.3 µM (inactive)	43.2 µM (inactive)	> 100 µM (inactive)	–
O=C(O)C12CCCC(CCC1)C2	> 100 µM (inactive)	> 100 µM (inactive)	> 100 µM (inactive)	> 100 µM (inactive)	> 100 µM (inactive)	> 100 µM (inactive)	> 100	> 100 µM (inactive)	> 100 µM (inactive)	> 100 µM (inactive)	> 100 µM (inactive)	> 100 µM (inactive)	> 100 µM (inactive)	> 100 µM (inactive)	–	–	> 100 µM (inactive)	> 100 µM (inactive)	> 100 µM (inactive)
CSc1nc(Cl)c2c(n1)Sc1ncnn1C2O (configuration not stated)	14.2 µM (inactive)	3.62 µM (inactive)	29.2 µM (inactive)	2.88 µM (inactive)	18.9 µM (inactive)	2.58 µM (inactive)	4.37	27.3 µM (inactive)	21.8 µM (inactive)	17.4 µM (inactive)	0.0547 µM (active)	–	12.6 µM (inactive)	3.18 µM (inactive)	25.9 µM (inactive)	2.86 µM (inactive)	14.3 µM (inactive)	4.29 µM (inactive)	12.7 µM (inactive)
